This experiment deals with Escherichia coli DNA gyrase A/B tetramer (Escherichia coli, UniProt P0AES4+P0AES6). The experiment can be described thus: DNA gyrase supercoiling activity fluorescence polarisation assay. The experiment is classed as biochemical. As for the experimental part:
The supercoiling reactions may be quenched by the addition of 10 microliters/well of 40 nM oligodeoxynucleotide probe in 3× triplex-forming buffer consisting of 150 mM NaCl, and 150 mM sodium acetate at pH 3.5. The oligodeoxynucleotide probe may be 5′-BODIPY-FL-labeled […]. After 60 minutes, the fluorescence anisotropy of the BODIPY-FL may be measured in a Tecan Ultra plate reader, using 485 nm excitation and 535 nm emission filters equipped with polarizers. The IC50 may be determined by nonliner regression using two control reactions. The first contains no test compound but 0.8% DMSO (100% activity) while the second control reaction contains 5 uM Ciprofloxacin and 0.8% DMSO (0% activity).

pIC50: −log10 of the molar value.

Chain of Escherichia coli DNA gyrase A/B tetramer (P0AES4 whole entry, one chain of several): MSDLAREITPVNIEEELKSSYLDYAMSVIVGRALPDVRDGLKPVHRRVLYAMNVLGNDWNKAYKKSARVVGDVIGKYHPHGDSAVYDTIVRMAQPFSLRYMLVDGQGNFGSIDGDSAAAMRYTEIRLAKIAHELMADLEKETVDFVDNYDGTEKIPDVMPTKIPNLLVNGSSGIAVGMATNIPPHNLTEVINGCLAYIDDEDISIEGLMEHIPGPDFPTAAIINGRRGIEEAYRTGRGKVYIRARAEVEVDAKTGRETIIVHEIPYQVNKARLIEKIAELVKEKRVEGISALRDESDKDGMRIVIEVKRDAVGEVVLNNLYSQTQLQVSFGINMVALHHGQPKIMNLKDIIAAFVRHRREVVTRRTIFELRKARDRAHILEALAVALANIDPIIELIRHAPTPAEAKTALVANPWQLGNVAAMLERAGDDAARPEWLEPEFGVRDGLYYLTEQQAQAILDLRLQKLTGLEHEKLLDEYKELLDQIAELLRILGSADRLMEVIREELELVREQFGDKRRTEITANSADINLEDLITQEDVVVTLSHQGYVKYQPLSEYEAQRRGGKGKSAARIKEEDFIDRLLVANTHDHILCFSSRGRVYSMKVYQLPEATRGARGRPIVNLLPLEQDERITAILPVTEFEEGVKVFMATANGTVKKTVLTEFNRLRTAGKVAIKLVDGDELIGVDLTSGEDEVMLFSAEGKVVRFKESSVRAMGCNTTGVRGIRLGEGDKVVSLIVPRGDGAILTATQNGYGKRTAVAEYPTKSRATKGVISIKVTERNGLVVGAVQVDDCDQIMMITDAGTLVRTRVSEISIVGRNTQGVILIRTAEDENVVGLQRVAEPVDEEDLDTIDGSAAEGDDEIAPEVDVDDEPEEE

On to `C[C@@H]1CN2c3ncc(-c4cn(C)cn4)cc3CC3(C(=O)NC(=O)NC3=O)[C@H]2[C@H](C)O1` (relative stereo) [Example 33, (6aS,7S,9R)-rel-7,9-Dimethyl-3-(1-methyl-1H-imidazol-4-yl)-6a,7,9,10-tetrahydro-2′H,5H-spiro[1,4-oxazino[4,3-a][1,8]naphthyridine-6,5′-pyrimidine]-2′,4′,6′(1′H,3′H)-trione], for which the pIC50 was 4.32.

The molecule `C[C@@H]1CN2c3ncc(-c4ncc[nH]4)cc3CC3(C(=O)NC(=O)NC3=O)[C@H]2[C@H](C)O1` (relative stereo) [Example 35, (6aS,7S,9R)-rel-3-(1H-Imidazol-2-yl)-7,9-dimethyl-6a,7,9,10-tetrahydro-2′H,5H-spiro[1,4-oxazino[4,3-a][1,8]naphthyridine-6,5′-pyrimidine]-2′,4′,6′(1′H,3′H)-trione] had a negative-log IC50 (pIC50) of less than 4.40. As to `C[C@@H]1CN2c3ncc(-c4ccc(-c5ccn[nH]5)s4)cc3CC3(C(=O)NC(=O)NC3=O)[C@H]2[C@H](C)O1` (relative stereo) [Example 36, (6aS,7S,9R)-rel-7,9-Dimethyl-3-[5-(1H-pyrazol-5-yl)thiophen-2-yl]-6a,7,9,10-tetrahydro-2′H,5H-spiro[1,4-oxazino[4,3-a][1,8]naphthyridine-6,5′-pyrimidine]-2′,4′,6′(1′H,3′H)-trione], the pIC50 is 5.70. As to `C[C@@H]1CN2c3ncc(-c4c[nH]cn4)cc3CC3(C(=O)NC(=O)NC3=O)[C@H]2[C@H](C)O1` (relative stereo) [Example 37, (6aS,7S,9R)-rel-3-(1H-Imidazol-4-yl)-7,9-dimethyl-6a,7,9,10-tetrahydro-2′H,5H-spiro[1,4-oxazino[4,3-a][1,8]naphthyridine-6,5′-pyrimidine]-2′,4′,6′(1′H,3′H)-trione], the pIC50 was 4.92. The molecule `C[C@@H]1CN2c3ncc(-c4ccccn4)cc3CC3(C(=O)NC(=O)NC3=O)[C@H]2[C@H](C)O1` (relative stereo) [Example 38, (6aS,7S,9R)-rel-7,9-Dimethyl-3-(pyridin-2-yl)-6a,7,9,10-tetrahydro-2′H,5H-spiro[1,4-oxazino[4,3-a][1,8]naphthyridine-6,5′-pyrimidine]-2′,4′,6′(1′H,3′H)-trione] gave a pIC50 of 4.92. With `C[C@@H]1CN2c3ncc(-c4nc5ccccc5[nH]4)cc3CC3(C(=O)NC(=O)NC3=O)[C@H]2[C@H](C)O1` (relative stereo) [Example 40, (6aS,7S,9R)-rel-3-(1H-Benzimidazol-2-yl)-7,9-dimethyl-6a,7,9,10-tetrahydro-2′H,5H-spiro[1,4-oxazino[4,3-a][1,8]naphthyridine-6,5′-pyrimidine]-2′,4′,6′(1′H,3′H)-trione], the pIC50 was 5.22. This pIC50 is 0.30 log units higher than that of the molecule before. To `C[C@@H]1CN2c3ncc(-c4ccc(Cl)cn4)cc3CC3(C(=O)NC(=O)NC3=O)[C@H]2[C@H](C)O1` (relative stereo) [Example 42, (6aS,7S,9R)-rel-3-(5-chloropyridin-2-yl)-7,9-dimethyl-6a,7,9,10-tetrahydro-2′H,5H-spiro[1,4-oxazino[4,3-a][1,8]naphthyridine-6,5′-pyrimidine]-2′,4′,6′(1′H,3′H)-trione] belongs 5.40. To `COc1ccncc1-c1cnc2c(c1)CC1(C(=O)NC(=O)NC1=O)[C@H]1[C@H](C)O[C@H](C)CN21` (relative stereo) [Example 43, (6aS,7S,9R)-rel-3-(4-Methoxypyridin-3-yl)-7,9-dimethyl-6a,7,9,10-tetrahydro-2′H,5H-spiro[1,4-oxazino[4,3-a][1,8]naphthyridine-6,5′-pyrimidine]-2′,4′,6′(1′H,3′H)-trione] belongs 4.92; to `C[C@@H]1CN2c3ncc(-c4cncnc4)cc3CC3(C(=O)NC(=O)NC3=O)[C@H]2[C@H](C)O1` (relative stereo) [Example 45, (6aS,7S,9R)-rel-7,9-Dimethyl-3-(pyrimidin-5-yl)-6a,7,9,10-tetrahydro-2′H,5H-spiro[1,4-oxazino[4,3-a][1,8]naphthyridine-6,5′-pyrimidine]-2′,4′,6′(1′H,3′H)-trione], 4.52.

`C[C@@H]1CN2c3ncc(-c4cccc5cccnc45)cc3CC3(C(=O)NC(=O)NC3=O)[C@H]2[C@H](C)O1` (relative stereo) [Example 47, (6aS,7S,9R)-rel-7,9-Dimethyl-3-(quinolin-8-yl)-6a,7,9,10-tetrahydro-2′H,5H-spiro[1,4-oxazino[4,3-a][1,8]naphthyridine-6,5′-pyrimidine]-2′,4′,6′(1′H,3′H)-trione] had a negative logarithm of the IC50 (pIC50) of less than 4.08. The same measure for `C[C@@H]1CN2c3ncc(-c4ccoc4)cc3CC3(C(=O)NC(=O)NC3=O)[C@H]2[C@H](C)O1` (relative stereo) [Example 48, (6aS,7S,9R)-rel-3-(Furan-3-yl)-7,9-dimethyl-6a,7,9,10-tetrahydro-2′H,5H-spiro[1,4-oxazino[4,3-a][1,8]naphthyridine-6,5′-pyrimidine]-2′,4′,6′(1′H,3′H)-trione]: 4.77; for `Cc1noc(C)c1-c1cnc2c(c1)CC1(C(=O)NC(=O)NC1=O)[C@H]1[C@H](C)O[C@H](C)CN21` (relative stereo) [Example 49, (6aS,7S,9R)-rel-3-(3,5-Dimethylisoxazol-4-yl)-7,9-dimethyl-6a,7,9,10-tetrahydro-2′H,5H-spiro[1,4-oxazino[4,3-a][1,8]naphthyridine-6,5′-pyrimidine]-2′,4′,6′(1′H,3′H)-trione]: 4.52. To `C[C@@H]1CN2c3ncc(-c4ccncc4)cc3CC3(C(=O)NC(=O)NC3=O)[C@H]2[C@H](C)O1` (relative stereo) [Example 50, (6aS,7S,9R)-rel-7,9-Dimethyl-3-(pyridin-4-yl)-6a,7,9,10-tetrahydro-2′H,5H-spiro[1,4-oxazino[4,3-a][1,8]naphthyridine-6,5′-pyrimidine]-2′,4′,6′(1′H,3′H)-trione] belongs 5.10; to `C[C@@H]1CN2c3ncc(-c4cnccn4)cc3CC3(C(=O)NC(=O)NC3=O)[C@H]2[C@H](C)O1` (relative stereo) [Example 52, (6aS,7S,9R)-rel-7,9-Dimethyl-3-(pyrazin-2-yl)-6a,7,9,10-tetrahydro-2′H,5H-spiro[1,4-oxazino[4,3-a][1,8]naphthyridine-6,5′-pyrimidine]-2′,4′,6′(1′H,3′H)-trione], 5.30. The molecule `C[C@@H]1CN2c3cnc(-c4ccccn4)cc3CC3(C(=O)NC(=O)NC3=O)[C@H]2[C@H](C)O1` (relative stereo) [Example 55, (6aS,7S,9R)-rel-7,9-Dimethyl-3-(pyridin-2-yl)-6a,7,9,10-tetrahydro-2′H,5H-spiro[1,4-oxazino[4,3-a][1,7]naphthyridine-6,5′-pyrimidine]-2′,4′,6′(1′H,3′H)-trione] showed a pIC50 of 4.68. `C[C@@H]1CN2c3cnc(-c4ccnn4C)cc3CC3(C(=O)NC(=O)NC3=O)[C@H]2[C@H](C)O1` (relative stereo) [Example 57, (6aS,7S,9R)-rel-7,9-dimethyl-3-(1-methyl-1H-pyrazol-5-yl)-6a,7,9,10-tetrahydro-2′H,5H-spiro[1,4-oxazino[4,3-a][1,7]naphthyridine-6,5′-pyrimidine]-2′,4′,6′(1′H,3′H)-trione] showed a pIC50 of 5.05. With `C[C@@H]1CN2c3cnc(-c4cn[nH]c4)cc3CC3(C(=O)NC(=O)NC3=O)[C@H]2[C@H](C)O1` (relative stereo) [Example 59, (6aS,7S,9R)-rel-7,9-Dimethyl-3-(1H-pyrazol-4-yl)-6a,7,9,10-tetrahydro-2′H,5H-spiro[1,4-oxazino[4,3-a][1,7]naphthyridine-6,5′-pyrimidine]-2′,4′,6′(1′H,3′H)-trione], the negative logarithm of the IC50 (pIC50) is 4.30. The same measure for `C[C@@H]1CN2c3cnc(-c4cncnc4)cc3CC3(C(=O)NC(=O)NC3=O)[C@H]2[C@H](C)O1` (relative stereo) [Example 60, (6aS,7S,9R)-rel-7,9-Dimethyl-3-(pyrimidin-5-yl)-6a,7,9,10-tetrahydro-2′H,5H-spiro[1,4-oxazino[4,3-a][1,7]naphthyridine-6,5′-pyrimidine]-2′,4′,6′(1′H,3′H)-trione]: 5.22; for `C[C@@H]1CN2c3cnc(-c4cccc5cccnc45)cc3CC3(C(=O)NC(=O)NC3=O)[C@H]2[C@H](C)O1` (relative stereo) [Example 62, (6aS,7S,9R)-rel-7,9-Dimethyl-3-(quinolin-8-yl)-6a,7,9,10-tetrahydro-2′H,5H-spiro[1,4-oxazino[4,3-a][1,7]naphthyridine-6,5′-pyrimidine]-2′,4′,6′(1′H,3′H)-trione]: 5.10.

As for `C[C@@H]1CN2c3cnc(-c4ccoc4)cc3CC3(C(=O)NC(=O)NC3=O)[C@H]2[C@H](C)O1` (relative stereo) [Example 63, (6aS,7S,9R)-rel-3-(furan-3-yl)-7,9-dimethyl-6a,7,9,10-tetrahydro-2′H,5H-spiro[1,4-oxazino[4,3-a][1,7]naphthyridine-6,5′-pyrimidine]-2′,4′,6′(1′H,3′H)-trione], the pIC50 was 4.46. To `Cc1noc(C)c1-c1cc2c(cn1)N1C[C@@H](C)O[C@@H](C)[C@@H]1C1(C2)C(=O)NC(=O)NC1=O` (relative stereo) [Example 64, (6aS,7S,9R)-rel-3-(3,5-Dimethylisoxazol-4-yl)-7,9-dimethyl-6a,7,9,10-tetrahydro-2′H,5H-spiro[1,4-oxazino[4,3-a][1,7]naphthyridine-6,5′-pyrimidine]-2′,4′,6′(1′H,3′H)-trione] belongs less than 4.08. With `C[C@@H]1CN2c3cnc(-c4ccncc4)cc3CC3(C(=O)NC(=O)NC3=O)[C@H]2[C@H](C)O1` (relative stereo) [Example 65, (6aS,7S,9R)-rel-7,9-Dimethyl-3-(pyridin-4-yl)-6a,7,9,10-tetrahydro-2′H,5H-spiro[1,4-oxazino[4,3-a][1,7]naphthyridine-6,5′-pyrimidine]-2′,4′,6′(1′H,3′H)-trione], the pIC50 was less than 5.00.

For the origin of these results see patent US20110178064A1, “SPIRO CONDENSED […] DERIVATIVES FOR USE AS ANTIBACTERIAL” (A[…]&D, priority 2007, published 2011).
